Laboratory results: PMC6920923, “Improving In Vivo Brain Delivery of Monoclonal Antibody Using Novel Cyclic Peptides” (Pharmaceutics, 2019)
Entries after “also recorded” stand apart in the source; their conditions may differ.

How the values were obtained:
[1] = test system: BBB; conditions: disulfide cyclic peptides vs parent linear peptides; ref [19],[20]; cited from earlier work
Excerpt: The goal of this study was to design and synthesize novel cyclic peptides derived from HAV6 and ADTC5 peptides to improve their BBB modulatory activity and selectivity by forming a peptide bond from the N- to C-termini (Table 1, Figure 1). The hypothesis is that the formation of N-to-C-termini cyclic peptides increases the backbone rigidity of the peptide to improve binding affinity and selectivity for the EC1 domain of cadherin as well as improving plasma stability of the cyclic peptide compared to its parent linear peptide. Previously, cHAVc3 and ADTC5 cyclic peptides were formed using a dis ...

[2] = test system: brain; conditions: MRI, mice; ref [19]; cited from earlier work
Procedure: Previously, cyclic cHAVc1 (cyclo(1,8)Ac-CSHAVASC-NH2) and cHAVc3 (cyclo(1,6)Ac-CSHAVC-NH2) were prepared and compared to a linear HAV4 (Ac-SHAVAS-NH2) in modulating the intercellular junctions in vitro and in vivo [19].

[3] = test system: MDCK cell monolayers; conditions: ref [19], cited from earlier work
Procedure: Previously, cyclic cHAVc1 (cyclo(1,8)Ac-CSHAVASC-NH2) and cHAVc3 (cyclo(1,6)Ac-CSHAVC-NH2) were prepared and compared to a linear HAV4 (Ac-SHAVAS-NH2) in modulating the intercellular junctions in vitro and in vivo [19]. […] An alanine scanning study was carried out to evaluate the role of each amino acid in HAV6 peptide, and the biological activity of each alanine mutant peptide was evaluated in lowering the TEER values of MDCK cell monolayers. Mutation of the Ser1 to Ala1 residue reduced the junction modulatory activity of the HAV6 mutant; ...

[4] = biological target: T1, EC1 domain of E-cadherin (Homo sapiens, UniProt P12830); conditions: NMR studies; ref [26]; cited from earlier work
T1 sequence (P12830 155-262 limits assumed): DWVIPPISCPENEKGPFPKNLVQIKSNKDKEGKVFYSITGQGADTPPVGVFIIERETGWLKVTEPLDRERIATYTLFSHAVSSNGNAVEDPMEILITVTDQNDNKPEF
Excerpt: Cadherin peptides interrupt the cadherin–cadherin interactions by binding to the extracellular domains of cadherins allowing delivered molecules to pass through the […] of the BBB. […] Using the X-ray structure of C-cadherin as a model, it is seen that the cadherin molecules can form cis- and trans-interactions with each other in a homotypic fashion. The cis-cadherin interactions were formed via binding of the EC1 domain from one ca ...

[5] = test system: BBB; conditions: cited from earlier work
Procedure: The duration of time of the BBB opening is an important factor to consider for using cadherin peptides to deliver molecules to the brain. This is because it is dangerous to keep the BBB open for a long period of time, allowing unwanted molecules to enter the brain. However, it is necessary to maintain the opening for an adequate amount of time to allow the delivered molecule to enter the brain with the necessary dose. For example, HAV6 has an opening window of less than 1 h to allow a small molecule such as IRdye-R800 and gadopentetic acid (Gd-DTPA) to enter the brain, while ADTC5 has a durati ...

[6] = test system: medulloblastoma brain tumor; conditions: ref [24], cited from earlier work
Procedure: (§1) Several attempts have been made to overcome this challenge using various invasive and non-invasive methods. Intracerebral ventricular (ICV) delivery is an invasive injection technique in which drug substances are administered directly into the cerebrospinal fluid in cerebral ventricles. Alternatively, many non-invasive methods have been investigated in vivo with various levels of success using receptor-mediated drug delivery systems, liposomes, microbubble-enhanced diagnostic ultrasound (MEUS), and nanoparticles. The most successful non-invasive method for delivering drugs to ...

[7] = test system: brain; conditions: cited from earlier work
Procedure: as §1

[8] = test system: brains of C57BL/6 mice; assay: In vivo brain delivery of IRdye800CW-IgG mAb (NIRF quantification); conditions: n = 3
Procedure: The activity of each peptide in enhancing BBB penetration was evaluated by delivering IRdye800CW donkey anti-goat IgG mAb in C57BL/6 mice; the amounts of mAb in the brain were determined using near infrared fluorescence (NIRF) imaging. Each group contains 3 mice per group (n = 3) with a mixture of male and female mice, selected randomly for each arm of the study. The injection solution was prepared by adding 600 µL PBS into 0.5 mg lyophilized IgG mAb; then, approximately 1.5 mg lyophilized peptide was added into the mixture yielding the injectable formulation. A 100 µL solution of a mixture containing IgG mAb (21.6 nmol/kg) along with 13 µmol/kg peptide was administered via tail vein. As a control, 100 µL of IgG mAb alone was administered via i.v. route. After the delivered molecules had been circulating for 15 min, the mice were sacrificed; then, a mixture of PBS with 0.5% Tween-20 was administered for cardiac perfusion to remove the blood and delivered molecules from the brain microvessels. The brain and other organs such as lung, heart, spleen, liver, and kidney were harvested and rinsed with PBS. The isolated organs were scanned with Odyssey® CLx for mAb quantification.
The brain deposition of IgG mAb was also quantified by NIRF imaging in brain homogenates. The isolated brains were mechanically homogenized in 2.0 mL of PBS. To make the standard solutions, IRDye800CW IgG mAb stock solution (70 µg/mL) was prepared; it was then diluted with various amounts of PBS to make six different mAb concentrations. To generate a calibration curve, the brain homogenate (200 µL) was aliquoted out to a 96-well plate. A total of 10 µL of each concentration of IgG mAb was added to three different wells of blank brain homogenates. The standard spiked homogenates were at a range of 10–200 ng/mL IgG mAb in brain homogenate. The wells were scanned using the Odyssey® CLx scanner, and the signal intensities vs. concentrations of mAb per gram of brain were used to generate a calibration curve.
ANOVA with Student–Newman–Keuls was used to compare the data for determining statistical significance for IgG mAb deposition in the brains. A p-value of less than 0.05 was used as a criterion for a significant difference in data comparison. Numeric results are presented as: mean ± SEM.
A calibration curve was generated to determine the amount of IgG mAb in the brain by spiking blank brain homogenates with a concentration range from 10 to 200 ng/mL, and good linearity with R^2 ≥ 0.98 was achieved. […] The average amounts of IgG mAb in the brains of HAV6-treated and control animals were 3.4 ± 0.4 and 4.0 ± 0.5 pmol/g brain, respectively. In contrast, the average amounts of mAb in the brains of cyclic HAVN1- and HAVN2-treated mice were 8.6 ± 0.5 and 8.8 ± 0.6 pmol/g brain, respectively. The BBB modulatory activities of ADTC5, linear ADTHAV, and cyclic ADTHAV were also compared to the control (Figure 5). […] The average brain deposition of IgG mAb were 11.8 ± 0.5, 15.7 ± 0.8, and 13.3 ± 0.7 pmol/g brain for linear ADTHAV, cyclic ADTHAV, and ADTC5, respectively.

[9] = test system: BBB; conditions: ref [22], cited from earlier work
Excerpt: Treating brain diseases is a challenge as it is difficult to deliver drugs through the BBB into the brain. As many approaches to solve this problem have failed clinically, it is important to investigate new methods to improve brain delivery of molecules for diagnosing and treating brain diseases. This study was focused on designing, synthesizing, and evaluating new cyclic peptides for modulating the BBB to increase paracellular protein delivery into the brain. […] This is because it is dangerous to keep the BBB open for a long period of time, allowing unwanted molecules to enter the brain. However, it is necessary to maintain the opening for an adequate amount of time to allow the delivered molecule to enter the brain with the necessary dose. For example, HAV6 has an opening window of less than 1 h to allow a small molecule such as IRdye-R800 and gadopentetic acid (Gd-DTPA) to enter the brain, while ADTC5 has a durati ...

[10] = test system: brain (C57BL/6 mice); conditions: recent studies, ref not given; cited from earlier work
Excerpt: Treating brain diseases is a challenge as it is difficult to deliver drugs through the BBB into the brain. As many approaches to solve this problem have failed clinically, it is important to investigate new methods to improve brain delivery of molecules for diagnosing and treating brain diseases. This study was focused on designing, synthesizing, and evaluating new cyclic peptides for modulating the BBB to increase paracellular protein delivery into the brain.

[11] = test system: brain (C57BL/6 mice); conditions: peptide 13 µmol/kg, albumin 21.6 nmol/kg; ref not given; cited from earlier work
Excerpt: Treating brain diseases is a challenge as it is difficult to deliver drugs through the BBB into the brain. As many approaches to solve this problem have failed clinically, it is important to investigate new methods to improve brain delivery of molecules for diagnosing and treating brain diseases. This study was focused on designing, synthesizing, and evaluating new cyclic peptides for modulating the BBB to increase paracellular protein delivery into the brain. […] It is proposed that the rigidity imposed on the peptide backbone of the cyclic peptide reduced the ensemble ...

[12] = test system: primary brain endothelial cell monolayers; conditions: ref [33] Bocsik et al.; cited from earlier work
Excerpt: (§2) This study was also aimed at developing cyclic ADTHAV peptide by combining important residues from the ADT peptide (i.e., ADTC5) and HAV peptide (i.e., HAV6). Because ADTC5 and HAV6 bind at different sites on the EC1 domain, combining the two active sequences could provide synergistic activity form both parent peptides on cyclic ADTHAV. In this case, cyclic ADTHAV contains the Thr-Pro-Pro-Val sequence from ADTC5 and Ser-His-Ala-Val sequence from HAV6. The hypothesis is that the combined sequence enhances BBB modulatory activity better than the parent ADTC5 and HAV6. The selection of the Thr-Pr ...

[13] = test system: MDCK cell monolayers / in vivo BBB; conditions: vs ADTC1 or ADTC5; ref [20]; cited from earlier work
Excerpt: as §2

Substance: cyclo(1,6)Ac-CSHAVC-NH2 (disulfide) [cHAVc3, earlier disulfide cyclic HAV peptide]
- BBB modulatory activity and plasma stability vs parent linear peptides, in words [1]: enhanced BBB modulatory activity and plasma stability compared to their parent linear peptides
- in vivo brain delivery of Gd-DTPA vs HAV4, in words [2]: better than a linear HAV4
- lowering of TEER values of MDCK cell monolayers vs HAV4, in words ([3]; TEER): better than a linear HAV4
- junction modulatory activity in MDCK cell monolayers, in words ([3]; compared to HAV4 (and cHAVc1)): more active compared to HAV4 and cHAVc1
- binding site on EC1 domain, in words [4]: bind to the EC1 domain of E-cadherin at the interface of cis-cadherin interactions

Substance: Ac-SHAVSS-NH2 [HAV6, parent linear cadherin peptide]
- BBB window of opening for galbumin ([5]; 65 kDa galbumin, ref [22] for HAV6 galbumin data, none printed for ADTC5): < 10 min
- opening window of BBB for small molecule (IRdye-R800 and Gd-DTPA) ([5]; IRdye-R800 and Gd-DTPA, ref [20],[21]): less than 1 h
- survival and tumor growth, in words ([6]; adenanthin + HAV6 vs adenanthin alone or placebo): increased survival and suppressed tumor growth
- delivery of adenanthin into brain, in words ([6]; mice with medulloblastoma brain tumor): significantly improve the delivery of an anticancer drug, adenanthin, into the brains of mice
- brain delivery of various molecules, in words ([7]; HAV6 and ADTC5 collectively, 14C-mannitol, PEG, daunomycin, R800, Gd-DTPA, cLABL, cIBR7, galbumin etc., ref [18],[19],[20],[21],[22],[23]): increase the brain delivery of various molecules
- oral and brain deliveries of eflornithine, in words ([7]; rats, ref [25]): simultaneously increased
- amount of IgG mAb in the brain (brain deposition) ([8]; IgG mAb 21.6 nmol/kg with or without 13 µmol/kg peptide, i.v. tail vein, 15 min circulation, PBS/0.5% Tween-20 perfusion, NIRF (Odyssey CLx) of brain homogenate, mean ± SEM): 3.4 ± 0.4 pmol/g brain
- brain delivery of IgG mAb compared to control (IgG mAb alone), in words ([8]; IgG mAb 21.6 nmol/kg, peptide 13 µmol/kg i.v., 15 min, ANOVA Student–Newman–Keuls): did not enhance brain delivery of IgG mAb compared to the control
- BBB penetration of galbumin with 10-min delay after peptide, in words ([9]; 10-min delay between peptide and galbumin): does not allow the galbumin to cross the BBB
- brain deposition of galbumin, in words ([9]; galbumin 600 nmol/kg, living mice, MRI): significant brain deposition of galbumin
- BBB penetration of 65 kDa galbumin, delivered together with peptide, in words ([9]; high dose galbumin): can increase the BBB penetration of galbumin
- binding site on EC1 domain, in words [4]: bind to the EC1 domain of E-cadherin at the interface of cis-cadherin interactions
- brain delivery of 15 kDa lysozyme vs control, in words [10]: significantly enhanced the brain delivery of 15 kDa lysozyme compared to the control
- brain delivery of albumin vs control, in words [11]: did not significantly enhance brain delivery of albumin; also recorded: no significant enhancement of albumin brain deposition

Substance: Ac-ADTPPV-NH2 [ADT6, linear ADT peptide of Bocsik et al]
- disruption of intercellular junctions (TEER), in words [12]: reversibly disrupts the intercellular junctions of primary brain endothelial cell monolayers

Substance: cyclo(1,6)Ac-CDTPPC-NH2 (disulfide) [ADTC6, earlier cyclic ADT peptide]
- activity of ADT peptide, in words [13]: lowered the activity of ADTC6 compared to ADTC5
